Results taken from US7129211B2, “Adipocyte Insulin adpinsl with Insulin A and B chains and an effective method of treating type 2 diabetes in a subject using adipocyte insulin” (Council of Scientific and Industrial Research, priority 2002, dated 2006).
Entries after “also recorded” stand apart in the source; their conditions may differ.

Key:
[1] = test system: streptozotocin induced diabetic rat; test: Biological activity of purified adipocyte insulin on streptozotocin induced diabetic rat; type: in vivo
Method: FIG. 5. Determination of biological activity of purified adipocyte insulin on streptozotocin induced diabetic rat. (a) The male Sprague Dawley rats of 100–150 g weight were selected for streptozotocin (STZ) treatment. […] (A) STZ untreated rats, only vehicle (0.9% saline) injected (n-6), (B) STZ rat, vehicle injected (n-6), (C) STZ rat injected with AdpInsl 10 μg/100 g body wt of rat (n-6). (D) STZ rat injected with 10 ug/100 g body wt of rat (n=6J porcine insulin. Each value is ±SEM of 6 observations. p<0.001 when C is compared with B,**p<0.05 when C is compared with D.
Insulin injection-Adipocyte IR-insulin (20 ug per 100 gm body weight) from incubation medium or 10 ug AdpInsl or porcine insulin was intraperitoneally injected into the male Sprague Dawley rats weighing between 100–150 g. After 6 hrs of injection blood was collected by retroorbital puncture using capillary tube, centrifuged to collect plasma and glucose content was determined by glucose-glucose oxidase method.

carp adipocytes = test: Determination of insulin activity in vitro: D-14C-glucose uptake by adipocytes; type: cell-based, carp Catla catla
Method: (b) Effect of AdpInsl and porcine insulin (PI) on glucose uptake by carp adipocytes. Adipocytes 1×10^5 cells/incubation, suspended in MEM containing 1% fetal calf serum and preincubated for 2 hours in the absence of insulin, after addition of D-^14C-glucose uptake was determined by the procedure described under the “Experimental procedures”. *p<0.05 when AdpInsl is compared with porcine insulin.
Determination of insulin activity in vitro—Freshly prepared adipocytes were suspended in the MEM and after 2 h 1.0 microCi of D-(^14C) glucose (final concentration 25 uM| containing was added to the adipocyte incubation. 25 ng/ml of AdpInsl or porcine insulin was added to the incubation and uptake of glucose was measured by following a previously described method (21). Initial rates of glucose uptake was determined from the incubation of adipocyte without insulin. The reaction was stopped at 3 min by washing the cells three times with ice cold MEM in the presence of 0.3 mM phloretin to correct the glucose uptake data from simple diffusion and nonspecific trapping of radioactivity.

Question: For “AdpInsl: Insulin purified from Catla catla carp adipocytes, A chain SEQ ID No. 1 (21 aa), B chain SEQ ID No. 2 (30 aa) (chain 1 GIVEQCCHKPCSIFELQNYCN; chain 2 PGAPQHLCGSHLVDALYLVCGPTGFFYNPK; listed as Catla catla)”, which “hypoglycemic activity greater than porcine insulin” value ([1]; STZ rat, 10 ug/100 g body wt each insulin, p<0.05) is on record?
Answer: Its value is 25%.

Question: What about the hyperglycemia ([1]; STZ rat, 10 ug/100 g body wt i.p., 6 hrs, p<0.001 compared with control) of the same substance?
Answer: Its hyperglycemia is “significantly reduced hyperglycemia”.

Question: And the “hypoglycemic effect compared to porcine insulin” value ([1]; streptozotocin induced diabetic rat)?
Answer: The value was “significantly stronger hypoglycemic effect”.

Question: What about the “increase in glucose uptake by adipocyte” value (carp adipocytes; 25 ng/ml insulin, 1x10^5 cells/incubation, uptake stopped at 3 min) of the same substance?
Answer: The value was “more than 2 fold”.

Question: What about the “stimulation of glucose uptake compared with porcine insulin” value (carp adipocytes; 25 ng/ml of each insulin, p<0.05) of the same substance?
Answer: Its value is “significantly higher; also recorded: more actively than porcine insulin”.
